Reference: patent US20250275976A1, “Methods of Treating Neuroinflammatory Conditions” (Athira Pharma, Inc., priority 2022, published 2025)
Square brackets hold non-standard residues; d marks the D form. Peptide text beside a SMILES is read from it. * marks the point of attachment. Hexanoyl = CCCCCC(=O)*; Ahx = NCCCCCC(=O)O

Experiments:
BV2 microglia = experiment: Quantigene gene expression panel in LPS-stimulated BV2 microglia; type: cell-based; design: key to Significant reduction in target transcript abundance compared to LPS-stimulated BV2 lysates: NLRP3 / Significant reduction in target transcript abundance compared to LPS-stimulated BV2 lysates: IL-1β / Significant reduction in target transcript abundance compared to LPS-stimulated BV2 lysates: IL-6 / Significant reduction in target transcript abundance compared to LPS-stimulated BV2 lysates: iNOS: “NS” indicates a non-significant reduction indicated gene expression compared to LPS-treated cultures; “+” indicates a p value < 0.05; “++” indicates a p value < 0.01; “+++” indicates a p value < 0.001; “+++” indicates a p value < 0.0005 in Dunnett's multiple comparison
Description: Changes in gene expression in BV2 cells in response to stimulation with LPS and whether or not these gene expression changes are influenced by treatment with Compound A19-AM was also examined. Inflammatory activation of BV2 microglia was stimulated by pre-treatment with LPS for 45 minutes followed by the addition of test compound for 23.5 hours. Cell cultures were then lysed and processed for expression profiling via bead-based transcript quantification using the Quantigene multiplex gene expression assay (ThermoFisher) and a custom array of target transcripts relevant to inflammatory activation. Expression of a major component of the inflammasome (NLRP3), cytokines (TNF-α, IL-1β, and IL-6), and inducible nitric oxide synthase (iNOS) were assessed. Expression data were quantified as fold change compared to unstimulated cell cultures. Statistical analysis consisted of one-way ANOVA with Dunnett's multiple comparisons post-test compared to LPS-stimulated lysates. Gene expression data is represented in Table 14. Expression of all inflammatory transcript targets were induced by treatment with LPS.

[1] = system: primary culture of both cortical neurons and microglia; experiment: Microglial activation (Iba1 area) after Aβ1-42 challenge; type: cell-based; design: key to Significant decrease in Iba1 area, compared to vehicle treated (Aβ challenge): “NS” indicates a non-significant change in Iba1 area; “+” indicates a p value < 0.05 in Fisher's LSD post-test compared to Aβ challenged
[2] = system: dopaminergic (DA) neurons; experiment: TH+ neuron number and neurite network after MPP+, rotenone or 6-OHDA injury; type: cell-based, rat (Wistar); design: key to Neurite Network (significance vs insult) / TH+ neuron number (significance vs insult): “NS” indicates that the comparison was not statistically significant; “+” indicates that p<0.05
Source text: A range of neurodegenerative disease states converge on neuroinflammatory dysfunction related to mitochondrial impairment and the generation of reactive oxygen species (ROS). Chemical disruption of mitochondrial function by treatment of neuron cultures with 1-methyl-4-phenylpyridium (MPP+) or the pesticide rotenone can lead to activation of inflammatory signaling pathways and death via apoptotic and necrotic mechanisms. Similarly, intracellular oxidation of 6-hydroxydopamine (6-OHDA), which is readily absorbed by dopaminergic neurons in culture, leads to production of ROS within the cell, activation of inflammatory signaling, and cell death. In vitro exposure to these neurotoxins has been successfully used to model the effects of neurodegenerative inflammation and identify therapeutic agents that can protect neurons from these effects.
Midbrain tissue obtained from 15-day old rat (Wistar) embryos was dissected and the ventral mesencephalic region, an area rich in dopaminergic (DA) neurons was removed and dissociated by trypsinization and mechanical passage. Cells were cultured in Neurobasal medium supplemented with B27 (2%), L-glutamine (2 mM), 2% of Penicillin-Streptomycin (PS) solution, 10 ng/mL of Brain-derived neurotrophic factor (BDNF) and 1 ng/mL of Glial-Derived Neurotrophic Factor (GDNF).
Viable cells were seeded at a density of 40,000 cells/well in 96-well plates and maintained at 37° C. in 5% CO2. […] Subsequently, chemical insults were added to the culture in separate plates as follows: 4 uM of MPP+ for 48 hours, 10 nM of rotenone for 24 hours, and 20 uM of 6-OHDA for 24 hours.
Following incubation, cell culture supernatant was replaced by a fixative solution of 4% paraformaldehyde in PBS for 20 minutes and prepared for immunostaining. Fixed cultures were stained with a monoclonal anti-Tyrosine Hydroxylase (TH) antibody (1:10000 in PBS, 2 hrs, RT) followed by incubation with appropriate fluorescent secondary antibody and Hoechst dye. Automated fluorescent imaging, 20 images per well, was performed at 10× magnification. Computation image analysis was used to quantify the total number of TH+ neurons, and the total length of the neurite network. Statistical analysis using a one-way ANOVA followed by Fishers LSD test compared inflammatory insult cultures with and without test compound treatment.

[3] = 6-OHDA injury (20 uM, 24 hrs), dose 0.01 nM
[4] = 6-OHDA injury (20 uM, 24 hrs), dose 0.1 nM
[5] = 6-OHDA injury (20 uM, 24 hrs), dose 1 nM
[6] = 6-OHDA injury (20 uM, 24 hrs), dose 10 nM
[7] = 6-OHDA injury (20 uM, 24 hrs), dose 100 nM
[8] = 6-OHDA injury (20 uM, 24 hrs), dose 1000 nM
[9] = MPP+ injury (4 uM, 48 hrs), dose 0.01 nM
[10] = MPP+ injury (4 uM, 48 hrs), dose 0.1 nM
[11] = MPP+ injury (4 uM, 48 hrs), dose 1 nM
[12] = MPP+ injury (4 uM, 48 hrs), dose 10 nM
[13] = MPP+ injury (4 uM, 48 hrs), dose 100 nM
[14] = MPP+ injury (4 uM, 48 hrs), dose 1000 nM
[15] = Rotenone injury (10 nM, 24 hrs), dose 0.01 nM
[16] = Rotenone injury (10 nM, 24 hrs), dose 0.1 nM
[17] = Rotenone injury (10 nM, 24 hrs), dose 1 nM
[18] = Rotenone injury (10 nM, 24 hrs), dose 10 nM
[19] = Rotenone injury (10 nM, 24 hrs), dose 100 nM
[20] = Rotenone injury (10 nM, 24 hrs), dose 1000 nM

In the case of CCCCCC(=O)N[C@@H](Cc1ccc(O)cc1)C(=O)N[C@H](C(=O)NCCCCCC(N)=O)[C@@H](C)CC [Compound A19 active metabolite, dihexa] (Hexanoyl-Tyr-Ile-[Ahx]-NH2), the “Expression of IL-1β (result in words)” value (BV2 microglia; concentrations as in the value) is reported as “reduced at treatment concentrations of 100 nM and 1 μM”, the “Expression of IL-6 (result in words)” value (BV2 microglia; concentrations as in the value) is reported as “reduced at by treatment with 1 μM” and the “Expression of NLRP3 (result in words)” value (BV2 microglia; concentrations as in the value) is reported as “significantly reduced by treatment with 100 nM and 1 μM”. The “Expression of TNF-α (result in words)” value (BV2 microglia; concentrations as in the value) was “reduced by treatment with A19-AM at all tested concentrations”, the “Expression of iNOS (result in words)” value (BV2 microglia; concentrations as in the value) was “significantly reduced by treatment with A19-AM at concentrations of 100 nM and 1 μM” and the “Significant reduction in target transcript abundance compared to LPS-stimulated BV2 lysates: IL-1β” value (“Significant reduction … IL-1β” for short) (BV2 microglia; dose 1 pM) was “NS”. For the same molecule, the “Significant reduction in target transcript abundance compared to LPS-stimulated BV2 lysates: IL-6” value (“Significant reduction … IL-6” below) (BV2 microglia; dose 1 pM) was “NS”, the “Significant reduction in target transcript abundance compared to LPS-stimulated BV2 lysates: NLRP3” value (from here on “Significant reduction … NLRP3”) (BV2 microglia; dose 1 pM) was “NS” and the “Significant reduction in target transcript abundance compared to LPS-stimulated BV2 lysates: iNOS” value (“Significant reduction … iNOS” below) (BV2 microglia; dose 1 pM) was “NS”. For the same molecule, the “Significant reduction … IL-1β” value (BV2 microglia; dose 10 pM) was “NS”, the “Significant reduction … IL-6” value (BV2 microglia; dose 10 pM) was “NS” and the “Significant reduction … NLRP3” value (BV2 microglia; dose 10 pM) was “NS”. The “Significant reduction … iNOS” value (BV2 microglia; dose 10 pM) was “NS”, the “Significant reduction … IL-1β” value (BV2 microglia; dose 100 pM) was “NS” and the “Significant reduction … IL-6” value (BV2 microglia; dose 100 pM) was “NS”. For the same molecule, the “Significant reduction … NLRP3” value (BV2 microglia; dose 100 pM) was “NS”, the “Significant reduction … iNOS” value (BV2 microglia; dose 100 pM) was “NS” and the “Significant reduction … IL-1β” value (BV2 microglia; dose 100 nM) was “+ (“+” indicates a p value < 0.05)”. For the same molecule, the “Significant reduction … IL-6” value (BV2 microglia; dose 100 nM) was “NS”, the “Significant reduction … NLRP3” value (BV2 microglia; dose 100 nM) was “++ (“++” indicates a p value < 0.01)” and the “Significant reduction … iNOS” value (BV2 microglia; dose 100 nM) was “++ (“++” indicates a p value < 0.01)”. The “Significant reduction … IL-1β” value (BV2 microglia; dose 1 μM) was “++ (“++” indicates a p value < 0.01)”, the “Significant reduction … IL-6” value (BV2 microglia; dose 1 μM) was “+ (“+” indicates a p value < 0.05)” and the “Significant reduction … NLRP3” value (BV2 microglia; dose 1 μM) was “+ (“+” indicates a p value < 0.05)”. The “Significant reduction … iNOS” value (BV2 microglia; dose 1 μM) was “++ (“++” indicates a p value < 0.01)”, the “Significant decrease in Iba1 area, compared to vehicle treated (Aβ challenge)” value (from here on “Significant decrease in Iba1 area”) ([1]; 100 nM, Pre-(60 min) and Co- Aβ challenge) was “+ (“+” indicates a p value < 0.05 in Fisher's LSD post-test compared to Aβ challenged)” and the “Significant decrease in Iba1 area” value ([1]; 100 nM, Pre-(60 min) and post-(24 h) Aβ challenge) was “NS”. The “Significant decrease in Iba1 area” value ([1]; 100 nM, Pre-(60 min), Co-, and post-(24 h) Aβ challenge) was “+ (“+” indicates a p value < 0.05 in Fisher's LSD post-test compared to Aβ challenged)”, the “Significant decrease in Iba1 area” value ([1]; 1 μM, Pre-(60 min) and Co- Aβ challenge) was “+ (“+” indicates a p value < 0.05 in Fisher's LSD post-test compared to Aβ challenged)” and the “Significant decrease in Iba1 area” value ([1]; 1 μM, Pre-(60 min) and post-(24 h) Aβ challenge) was “NS”. For the same molecule, the “Significant decrease in Iba1 area” value ([1]; 1 μM, Pre-(60 min), Co-, and post-(24 h) Aβ challenge) was “+ (“+” indicates a p value < 0.05 in Fisher's LSD post-test compared to Aβ challenged)”, the “Significant decrease in Iba1 area” value ([1]; 60 min pre-Aβ challenge, concentration not given) was “+ (“+” indicates a p value < 0.05 in Fisher's LSD post-test compared to Aβ challenged)” and the “Microglial activation, as measured by Iba1 area (result in words)” value ([1]; Aβ1-42 challenge 72 hours) was “significantly reduced microglial activation”. The “Neurite Network (significance vs insult)” value [2, 3] was “NS”, the “TH+ neuron number (significance vs insult)” value [2, 3] was “NS” and the “Neurite Network (significance vs insult)” value [2, 4] was “NS”. The “TH+ neuron number (significance vs insult)” value [2, 4] was “NS”, the “Neurite Network (significance vs insult)” value [2, 5] was “NS” and the “TH+ neuron number (significance vs insult)” value [2, 5] was “+ (“+” indicates that p<0.05)”. The “Neurite Network (significance vs insult)” value [2, 6] was “+ (“+” indicates that p<0.05)”, the “TH+ neuron number (significance vs insult)” value [2, 6] was “+ (“+” indicates that p<0.05)” and the “Neurite Network (significance vs insult)” value [2, 7] was “+ (“+” indicates that p<0.05)”. The “TH+ neuron number (significance vs insult)” value [2, 7] was “+ (“+” indicates that p<0.05)”, the “Neurite Network (significance vs insult)” value [2, 8] was “+ (“+” indicates that p<0.05)” and the “TH+ neuron number (significance vs insult)” value [2, 8] was “+ (“+” indicates that p<0.05)”. For the same molecule, the “Neurite Network (significance vs insult)” value [2, 9] was “NS”, the “TH+ neuron number (significance vs insult)” value [2, 9] was “NS” and the “Neurite Network (significance vs insult)” value [2, 10] was “NS”. The “TH+ neuron number (significance vs insult)” value [2, 10] was “NS”, the “Neurite Network (significance vs insult)” value [2, 11] was “NS” and the “TH+ neuron number (significance vs insult)” value [2, 11] was “+ (“+” indicates that p<0.05)”. For the same molecule, the “Neurite Network (significance vs insult)” value [2, 12] was “NS”, the “TH+ neuron number (significance vs insult)” value [2, 12] was “+ (“+” indicates that p<0.05)” and the “Neurite Network (significance vs insult)” value [2, 13] was “+ (“+” indicates that p<0.05)”. The “TH+ neuron number (significance vs insult)” value [2, 13] was “+ (“+” indicates that p<0.05)”, the “Neurite Network (significance vs insult)” value [2, 14] was “+ (“+” indicates that p<0.05)” and the “TH+ neuron number (significance vs insult)” value [2, 14] was “+ (“+” indicates that p<0.05)”. The “Neurotoxic impact of inflammatory-relevant chemical insults (result in words)” value ([2]; MPP+, rotenone, 6-OHDA) was “reduces the neurotoxic impact of inflammatory-relevant chemical insults”, the “Neurite Network (significance vs insult)” value [2, 15] was “NS” and the “TH+ neuron number (significance vs insult)” value [2, 15] was “NS”. The “Neurite Network (significance vs insult)” value [2, 16] was “NS”, the “TH+ neuron number (significance vs insult)” value [2, 16] was “NS” and the “Neurite Network (significance vs insult)” value [2, 17] was “NS”. The “TH+ neuron number (significance vs insult)” value [2, 17] was “NS”, the “Neurite Network (significance vs insult)” value [2, 18] was “NS” and the “TH+ neuron number (significance vs insult)” value [2, 18] was “+ (“+” indicates that p<0.05)”. The “Neurite Network (significance vs insult)” value [2, 19] was “+ (“+” indicates that p<0.05)”, the “TH+ neuron number (significance vs insult)” value [2, 19] was “+ (“+” indicates that p<0.05)” and the “Neurite Network (significance vs insult)” value [2, 20] was “+ (“+” indicates that p<0.05)”. For the same molecule, the “TH+ neuron number (significance vs insult)” value [2, 20] was “+ (“+” indicates that p<0.05)”.
